From the METLIN SMRT retention time set (Domingo-Almenara et al. 2019)

Assay: gradient 5% acetonitrile 3 min, to 50% in 2 min, to 85% in 15 min, held 3 min, 100 µL/min
Conditions: column: Zorbax Extend-C18 2.1 x 50 mm; eluents: water / acetonitrile, 0.1% formic acid
Procedure, shortened: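 Values are retention times taken from adduct peaks that software picked and an analyst inspected. The pure standards were run as mixtures of ~100 molecules on HPLC linked to a quadrupole time-of-flight mass spectrometer, in positive and negative ionization mode. A Zorbax Extend-C18 column (2.1 × 50 mm, 1.8 μm) was used at 100 μL/min with water and acetonitrile, each including 0.1% formic acid.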

Row | Compound | RP-LC retention time
1 | O=C(CSc1nc2scc(-c3ccccc3)c2c(=O)[nH]1)c1ccccc1 | 936 s
2 | CCCNc1cc(N2CCC(CCC(=O)NCc3ccccc3Cl)CC2)ncn1 | 718 s
3 | CCOC(=O)CNC(=O)NCCc1nc2cccnc2n1-c1ccccc1 | 608 s
4 | CC1CS(=O)(=O)N(c2ccc(S(=O)(=O)N3CCC(C(N)=O)CC3)cc2)C1=O (configuration not stated) | 640 s
5 | CCOC(=O)C1CCN(C(=O)C(C)N2C(=O)C3CCCCN3C(=O)c3ccccc32)CC1 (configuration not stated) | 745 s
6 | O=C(NCCC1=CCCCC1)c1ccc2ncnc(N3CCCC3)c2c1 | 688 s
7 | COc1ccc(S(=O)(=O)N2CC3CN(C(=O)c4ccc(C#N)cc4)CC(C2)O3)cc1 | 773 s
8 | CCn1cnc(S(=O)(=O)N2CCCC(C(=O)Nc3ccc(F)cc3C)C2)c1 (configuration not stated) | 726 s
9 | Cn1cc(-c2cc3n(n2)CCC(=O)N3CC(=O)NCCc2c[nH]c3ccccc23)c2ccccc21 | 825 s
10 | O=C(NCC(=O)N1CCCc2ccccc21)c1ccccc1 | 777 s
11 | Cc1cc2nn(CC(=O)NC3CCCCC3)c(=O)n2c(-c2ccccc2)n1 | 764 s
12 | CCC1(CC)NC(=O)N(CC(=O)Nc2ccc(F)cc2F)C1=O | 677 s
13 | COc1ccc(S(=O)(=O)NCCc2ccc(N3CCCC3)cc2)cc1OC | 776 s
14 | O=C(Cc1nnc(-c2cnccn2)o1)Nc1cccc(C(F)(F)F)c1 | 780 s
15 | Cc1ccc(-c2cc3n(n2)CCCN(C(=O)Cc2ccsc2)C3)cc1 | 857 s
16 | COc1ccc(Cl)cc1NC(=O)C1CC(=O)N(c2cccc(NC(C)=O)c2)C1 (configuration not stated) | 740 s
17 | CCCNC(=O)C1CCN(c2ccc(SCC(=O)Nc3cccc(C(C)C)c3)nn2)CC1 | 728 s
18 | COc1ccc(C2Cn3cnc(C(=O)N4CCC(C(=O)NC(C)c5ccccc5)CC4)c3CO2)cc1 (configuration not stated) | 751 s
19 | CN(CC(=O)NCc1ccncc1)c1nc2c(Cl)cccc2s1 | 564 s
20 | O=C(NC1CCN(Cc2ccccc2)CC1)c1ccc(I)cc1 | 727 s
21 | CCn1c(C(=O)NC(C)CCc2ccccc2)cc2sc(Cl)cc21 (configuration not stated) | 1270 s

Continued, values first:

Row | RP-LC retention time | Compound
22 | 797 s | CCn1cnc2ccc(-c3noc(-c4cc(OC)cc(OC)c4)n3)cc21
23 | 937 s | c1ccc(N2CCN(Cc3nc(-c4ccc(N5CCSCC5)nc4)no3)CC2)cc1
24 | 984 s | COc1ccc(-c2noc(C3CC(=O)N(c4ccc(C)c(F)c4)C3)n2)cc1OC (configuration not stated)
25 | 720 s | CCc1nc(OCC(=O)Nc2cc(OC)cc(OC)c2)c2ccccc2n1
26 | 828 s | COCCNC(=O)COc1cc(C)nc(-c2ccc(Cl)cc2)n1
27 | 882 s | Cc1ccc(NC2CC(=O)N(c3cccc([N+](=O)[O-])c3)C2=O)cc1 (configuration not stated)
28 | 650 s | COc1ccc(-c2nnc(COc3ccc(NC(=O)CSc4ccncc4)cc3)o2)cc1
29 | 982 s | Cc1cc(-c2nnc(-c3ccccc3)o2)c(C)n1CC(=O)NCc1ccc(Cl)cc1
30 | 1070 s | COC(=O)c1c(-c2ccccc2)noc1NCc1ccc(OC)cc1OC
31 | 960 s | COCc1cnc2c(c1SCc1cccc(F)c1)c(=O)n(C)c(=O)n2C
32 | 677 s | Cn1c(=O)c2c(ncn2CC(=O)N2CCCn3nc(-c4cccc(F)c4)cc3C2)n(C)c1=O
33 | 1000 s | O=C1CC(c2nc(-c3cccc(Cl)c3)no2)CN1c1ccc2c(c1)OCCO2 (configuration not stated)
34 | 1160 s | CCCn1c(=O)c(C)nc2cc(-c3noc(-c4ccc(Br)o4)n3)ccc21
35 | 857 s | Cc1ccc(NC(=O)Cn2nc(N(C)C)c3ccccc3c2=O)cc1
36 | 737 s | CCC1CCCCN1C(=O)c1cnc2nc(C)ccc2c1Nc1cc(C)ccc1C (configuration not stated)
37 | 1060 s | COc1ccc(-c2noc(CN3C(=O)COc4cc(Cl)ccc43)n2)cc1
